Measured values published in patent EP4786454A1, “HETEROARYL DERIVATIVE AND USE THEREOF” (priority 2023, dated 2025).
Read-outs that look alike come from different tables or passages of the source.

Tests used:
Experiment in all cases: Drug-drug interaction, CYP inhibition in human liver microsomes, cocktail method
Format in all cases: in vitro ADME
CYP1A2 = target: T1, CYP1A2 (Homo sapiens, UniProt P05177)
T1 construct: from tissue; host or cells: human liver microsomes
T1 sequence (P05177 1-516): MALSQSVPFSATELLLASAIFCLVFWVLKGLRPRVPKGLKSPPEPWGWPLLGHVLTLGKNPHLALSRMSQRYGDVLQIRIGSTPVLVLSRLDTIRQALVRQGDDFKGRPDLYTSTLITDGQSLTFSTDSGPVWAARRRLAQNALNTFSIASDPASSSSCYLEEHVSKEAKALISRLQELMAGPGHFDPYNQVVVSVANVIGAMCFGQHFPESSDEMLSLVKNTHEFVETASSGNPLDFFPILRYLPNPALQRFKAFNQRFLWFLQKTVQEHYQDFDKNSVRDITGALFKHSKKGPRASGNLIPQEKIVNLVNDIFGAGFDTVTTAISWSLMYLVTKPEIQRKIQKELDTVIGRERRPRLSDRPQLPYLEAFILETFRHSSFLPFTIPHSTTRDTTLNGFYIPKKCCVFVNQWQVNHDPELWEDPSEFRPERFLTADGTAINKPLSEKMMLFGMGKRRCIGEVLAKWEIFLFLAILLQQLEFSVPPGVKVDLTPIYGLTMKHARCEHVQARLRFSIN
Description: (§1) The inhibitory effects of compounds on the activity of human liver microsomal cytochrome P450 isoenzymes (CYP1A2, CYP2C9, CYP2C19, CYP2D6, and CYP3A) were evaluated using a cocktail method with specific probe substrates for CYP1A2, CYP2C9, CYP2C19, CYP2D6, and CYP3A.
(§2) Human liver microsomes, probe substrates, positive control inhibitor, and reduced nicotinamide adenine dinucleotide phosphate.
(§3) 20 µL of a substrate solution was added to the corresponding well of a reaction plate, and 20 µL of potassium phosphate buffer was added to the blank wells.
(§4) 2 µL of a test compound working solution and positive control working solution were added to the corresponding wells, and 2 µL of solvent was added to the inhibitor-free wells and blank wells.
(§5) Human liver microsomal working solution was prepared, and 158 µL of human liver microsomal working solution was added to each well of the reaction plate.
(§6) The reaction plate was preheated at 37.0 °C for 10 minutes.
(§7) 20 µL of NADPH cofactor working solution was added to the reaction plate to initiate the reaction.
(§8) The mixture was mixed and incubated in a 37.0 °C water bath for 10 minutes, and 400 µL of stop solution was added to the reaction plate to terminate the reaction.
(§9) The sample plate was placed in a centrifuge, and centrifuged at 4000 rpm for 20 minutes.
(§10) 200 µL of supernatant was taken out, and appropriate 100 µL of pure water was added for dilution. The plate was shaken until the mixture was mixed well.
(§11) The analysis was performed using liquid chromatography-tandem mass spectrometry (LC-MS/MS).
(§12) The IC50 values of the assay samples were calculated by performing a three-parameter or four-parameter nonlinear regression analysis using XL fit software, with the remaining percentage of activity as the ordinate and the assay sample concentration as the abscissa. When the IC50 obtained by fitting with XL fit software was greater than the maximum administration concentration (50.0 µM) or IC50 could not be obtained by fitting, the IC50 value was marked as ">50.0 µM".
(§13) Three-parameter equation: y = (max)/(1 + (((x)/(IC50)))^−hillslope) [formula]
(§14) Four-parameter equation: y = min + (max−min)/(1 + (((x)/(IC50)))^−hillslope) [formula] max: maximum enzyme activity; min: minimum enzyme activity; x: concentration of the assay sample or positive control inhibitor; y: enzyme activity at the corresponding concentration; hillslope: slope; IC50: half-maximal inhibitory concentration; the four-parameter equation was used when the minimum enzyme activity was within ±10%, otherwise the three-parameter equation was used. Drug-drug interaction assay results of the compounds of the present disclosure

CYP2C19 = target: T2, CYP2C19 (Homo sapiens, UniProt P33261)
T2 construct: from tissue; host or cells: human liver microsomes
Description: as §1, §2, §3, §4, §5, §6, §7, §8, §9, §10, §11, §12, §13, §14

CYP2C9 = target: T3, CYP2C9 (Homo sapiens, UniProt P11712)
T3 construct: from tissue; host or cells: human liver microsomes
Description: as §1, §2, §3, §4, §5, §6, §7, §8, §9, §10, §11, §12, §13, §14

CYP2D6 = target: T4, CYP2D6 (Homo sapiens, UniProt P10635)
T4 construct: from tissue; host or cells: human liver microsomes
Description: as §1, §2, §3, §4, §5, §6, §7, §8, §9, §10, §11, §12, §13, §14

CYP3A4 = CYP3A4 (Homo sapiens, UniProt P08684)
Description: as §1, §2, §3, §4, §5, §6, §7, §8, §9, §10, §11, §12, §13, §14

[1] = human liver microsomes, maximum concentration 50.0 µM, read-out: CYP 1A2 (IC50)
[2] = human liver microsomes, maximum concentration 50.0 µM, read-out: CYP 2C19 (IC50)
[3] = human liver microsomes, maximum concentration 50.0 µM, read-out: CYP 2C9 (IC50)
[4] = human liver microsomes, maximum concentration 50.0 µM, read-out: CYP 2D6 (IC50)
[5] = human liver microsomes, maximum concentration 50.0 µM, read-out: CYP 3A4 (IC50)

T3 sequence (P11712 whole entry): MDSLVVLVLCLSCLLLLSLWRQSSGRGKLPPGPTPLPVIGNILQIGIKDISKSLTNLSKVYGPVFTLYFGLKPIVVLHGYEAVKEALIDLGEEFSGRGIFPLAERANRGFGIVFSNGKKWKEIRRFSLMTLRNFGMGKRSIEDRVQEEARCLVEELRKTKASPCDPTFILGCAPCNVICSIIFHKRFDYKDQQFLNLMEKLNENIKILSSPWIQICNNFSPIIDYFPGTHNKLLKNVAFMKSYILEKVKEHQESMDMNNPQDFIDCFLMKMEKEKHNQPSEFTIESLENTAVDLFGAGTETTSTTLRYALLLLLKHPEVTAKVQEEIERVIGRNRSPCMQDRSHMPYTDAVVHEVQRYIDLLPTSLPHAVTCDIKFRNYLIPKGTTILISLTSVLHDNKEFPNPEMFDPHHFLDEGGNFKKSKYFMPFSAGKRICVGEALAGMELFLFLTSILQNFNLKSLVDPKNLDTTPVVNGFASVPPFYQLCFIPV
T4 sequence (P10635 whole entry): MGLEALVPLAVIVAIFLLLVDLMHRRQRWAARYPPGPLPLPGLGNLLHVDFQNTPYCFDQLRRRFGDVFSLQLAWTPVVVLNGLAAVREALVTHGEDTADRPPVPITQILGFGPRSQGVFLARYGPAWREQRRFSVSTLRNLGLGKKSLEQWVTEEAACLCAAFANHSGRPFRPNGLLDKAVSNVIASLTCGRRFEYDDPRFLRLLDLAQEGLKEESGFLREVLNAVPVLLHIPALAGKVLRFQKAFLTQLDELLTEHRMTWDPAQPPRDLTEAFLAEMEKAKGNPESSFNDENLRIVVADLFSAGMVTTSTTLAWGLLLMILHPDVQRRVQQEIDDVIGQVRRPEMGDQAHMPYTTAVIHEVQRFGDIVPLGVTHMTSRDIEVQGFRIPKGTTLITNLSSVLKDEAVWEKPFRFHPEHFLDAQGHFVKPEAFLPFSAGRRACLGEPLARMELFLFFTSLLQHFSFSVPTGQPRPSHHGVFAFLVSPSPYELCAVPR
Chain of CYP3A4 (P08684 2-503): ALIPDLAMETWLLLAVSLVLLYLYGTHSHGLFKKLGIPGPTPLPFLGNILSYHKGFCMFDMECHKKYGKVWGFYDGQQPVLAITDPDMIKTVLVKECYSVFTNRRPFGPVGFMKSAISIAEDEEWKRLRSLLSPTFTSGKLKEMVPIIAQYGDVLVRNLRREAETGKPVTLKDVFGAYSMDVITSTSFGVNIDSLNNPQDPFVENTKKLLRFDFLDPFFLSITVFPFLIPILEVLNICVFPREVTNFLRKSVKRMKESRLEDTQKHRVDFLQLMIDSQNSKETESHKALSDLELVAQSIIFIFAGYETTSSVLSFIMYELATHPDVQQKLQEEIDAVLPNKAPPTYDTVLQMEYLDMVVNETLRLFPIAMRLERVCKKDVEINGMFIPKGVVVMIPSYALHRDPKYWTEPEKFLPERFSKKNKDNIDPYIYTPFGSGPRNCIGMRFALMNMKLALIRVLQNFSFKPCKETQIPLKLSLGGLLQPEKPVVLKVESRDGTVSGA
T2 sequence (P33261 whole entry): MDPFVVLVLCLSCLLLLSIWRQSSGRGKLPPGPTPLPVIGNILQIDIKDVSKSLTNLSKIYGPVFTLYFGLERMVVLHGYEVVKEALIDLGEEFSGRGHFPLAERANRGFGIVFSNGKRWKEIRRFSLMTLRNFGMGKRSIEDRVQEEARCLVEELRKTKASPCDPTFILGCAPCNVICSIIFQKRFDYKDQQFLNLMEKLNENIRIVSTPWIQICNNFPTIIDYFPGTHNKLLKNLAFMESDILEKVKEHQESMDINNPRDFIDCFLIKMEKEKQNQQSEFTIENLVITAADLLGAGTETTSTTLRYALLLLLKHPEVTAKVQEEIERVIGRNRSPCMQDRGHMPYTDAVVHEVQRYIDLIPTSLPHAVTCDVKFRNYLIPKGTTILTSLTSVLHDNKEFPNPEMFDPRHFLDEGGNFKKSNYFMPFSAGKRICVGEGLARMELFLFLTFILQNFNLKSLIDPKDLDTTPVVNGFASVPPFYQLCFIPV

Row | SMILES | IC50 (CYP1A2) | IC50 (CYP2C19) | IC50 (CYP2C9) | IC50 (CYP2D6) | IC50 at 10 min (CYP3A4; human, microsomes) | IC50 (CYP1A2; [1]) | IC50 (CYP2C19; [2]) | IC50 (CYP2C9; [3]) | IC50 (CYP2D6; [4]) | IC50 at 10 min (CYP3A4; [5])
1 | CC(C)(C)CC(=O)Nc1nc2c(F)cc(C#N)cn2c1-c1ccc(OC(F)(F)F)cc1 [Compound 1] | > 50 µM | 31 µM | 46 µM | 42 µM | 14 µM |  |  |  |  | 
2 | CC(C)(C)CC(=O)Nc1nc2c(F)cc(C#N)cn2c1C1=CCCC1 [Compound 3] |  |  |  |  |  | > 50 µM | > 50 µM | > 50 µM | > 50 µM | > 50 µM
3 | CC(C)(C)CC(=O)Nc1nc2c(F)cc(C#N)cn2c1C12CC(C1)C2 [Compound 5] |  |  |  |  |  | > 50 µM | > 50 µM | > 50 µM | > 50 µM | > 50 µM
4 | CC(C)(C)CC(=O)Nc1nc2c(C(F)(F)F)cc(C#N)cn2c1C12CC(C1)C2 [Compound 6] |  |  |  |  |  | > 50 µM | > 50 µM | > 50 µM | > 50 µM | > 50 µM
